According to US20110144565A1, “COMBINATION OF A TILIROSIDE AND A PEPTIDE” (LABORATOIRES CLARINS, priority 2008, published 2011):

Test system: collagen type I synthesis in normal adult human fibroblasts
Experiment: Immunolocalization of collagen type I in normal adult human fibroblasts (immunofluorescence, image analysis)
Assay type: cell-based
Conditions: 2×10^−3% palmitoyl lysine-valine-5 diaminohydroxybutyrate (P1), 72 hours, Anova
Experimental: The fibroblasts were seeded into 6-well plates with a glass coverslip in a proportion of 70 000 cells per dish, in MEM (Minimum Essential Medium). […] Each cell layer was then rinsed and fixed with methanol (−20° C.) before visualizing the collagen type I by immunofluorescence. […] The incubation time between each antibody is 1 hour. The cell nuclei are visualized by means of Dapi labeling. The coverslips are mounted on glass slides and then observed under a fluorescence microscope (Nikon Eclipse 50i). Photographs are taken of several fields of the cell population. The TRITC fluorescence images indicate the regions of localization of collagen type I. The DAPI fluorescence images indicate the cell nuclei and therefore the number of cells per field. The photographic images are analyzed using the Lucia image analysis software. The intensity of collagen labeling was observed on 14 and 15 photographic images according to the conditions. This fluorescence intensity is related to the number of cells per image. The differences in mean between the populations were studied by analysis of variance (Anova). This method uses measurements of variance in order to determine the significant or nonsignificant nature of the differences in mean measured on the populations.

Substance: palmitoyl lysine-valine-5 diaminohydroxybutyrate
- collagen type I labeling (fluorescence intensity related to the number of cells) compared with the nontreated control: statistically significant (p<0.0001) increase in collagen
